Consider 14 compounds from patent US8410144B2, “Substituted indolo-pyridinone compounds” (ArQule, Inc., priority 2009, dated 2013).

One assay has as its system NCI-H1299. As to the kind of experiment: MTS assay, NCI-H1299 cells. It is filed as cell-based. Particulars: Homo sapiens, 72 hours, read-out: NCI-H1299, MTS cell kill % inhibition. As to the method:
(§1) Cells were maintained at 37° C., 5% CO2 in DMEM media supplemented with 1% fetal bovine serum, penicillin/streptomycin and fungizone (Invitrogen). Cells were seeded into 96-well tissue culture plates at 3000 per well and cultured at 37° C. for 18 hours. Test compounds were dissolved and diluted to 300× in DMSO then diluted 1:40 in DMEM. Cells were incubated with test compounds for 72 hours followed by incubation with tetrazolium compound (3-(4,5-dimethylthiazol-2-yl)-5-(3-carboxymethoxyphenyl)-2-(4-sulfophenyl)-2H-tetrazolium, inner salt; MTS) and the electron coupling reagent, phenazine methosulfate (PMS) for 4 hours. […] The ability of compounds to inhibit cell growth in this assay is correlated with the reduction of dehydrogenase enzyme activity found in metabolically active cells. The measurement of the absorbance of the formazan was assessed using an ENVISION™ (Perkin Elmer) microplate reader at 492 nm. The calculated IC50 value is the concentration of the test compound that causes a 50% decrease in the absorbance.

A further assay relates to DLD-1. As to the kind of experiment: MTS assay, DLD-1 cells. It is filed as cell-based. The following applies: Homo sapiens, 72 hours, read-out: DLD-1, MTS cell kill % inhibition. As for the experimental part: as §1
On the technique in general: Tetrazolium dyes change colour on reduction, which living cells bring about.

The test system of another assay is MDA-MB-231. In words: MTS assay, MDA-MB-231 cells. It is filed as cell-based. The following applies: Homo sapiens, 72 hours, read-out: MDA-MB-231, MTS cell kill % inhibition. As for the experimental part:
as §1

The next assay has as its system KATO III. As to the kind of experiment: MTS assay, KATO III cells. The following applies: Homo sapiens, 72 hours, read-out: KATO III, MTS cell kill % inhibition. It is filed as cell-based. As to the method:
as §1

A further assay concerns the target IGF-1R (Homo sapiens, UniProt P08069). In words: IGFR1 activity assay (ELISA). It is filed as biochemical. The following applies: read-out: IGF-1R, PCT INH (30 μM), ELISA. As to the method:
The disclosed compounds were assayed for their ability to inhibit insulin-like growth factor receptor-1 (IGFR1). Nunc Maxisorb plates were coated with streptavidin by overnight incubation with 100 μL per well of 1 μg/ml Streptavidin in DPBS. Prior to the start of the experiment, the plates were washed with TBST (3×200 μL) and blocked for at least 1 hour by adding 150 μL of 5% BSA/TBST. The plates were washed with TBST (3×200 μL/well) and left to dry immediately before the capture step.
The disclosed test articles and controls (Staurosporine) were prepared using the following assay buffer at 3× desired final concentration (50 mM Tris-HCl, 0.02 mg/ml BSA, 10 mM MgCl2, 0.1 mM Na3VO4, 1 mM EGTA, 12.5 μM ATP, 0.01% NP-40, 1 mM DTT in 10% glycerol/water). 20 μL of the test compounds (or control), 20 μL IGF1R (0.33 ng/μL final concentration), and 20 μL of Pyk-2 (0.05 ng/μL final concentration) were rapidly added to the reaction plate. The plate was incubated at room temperature for one hour.
50 μL was transferred from the reaction plate to the streptavidin coated plate. The capture plate was incubated at room temperature for 30 minutes, then washed with TBST three times. 100 μL/well of Cell Signaling anti-phospho tyrosine was added to the capture plate at a dilution of 1:3000 in 2% BSA/TBST. The plate was incubated for one hour at room temperature then washed 6× with TBST. 100 μL/well of alkaline phosphatase tagged goat anti mouse antibody was added to the capture plate at a dilution of 1:4000 in 2% BSA/TBST. The plate was incubated for one hour at room temperature then washed with TBST six times.
The fluorescent readout is initiated by the addition of 100 μL/well of Attophos reagent (6 mg/10 mL). The reading is done on the Perkin Elmer Envision system.
A general note: In an ELISA, binding on a coated surface is turned into a signal by an enzyme label.

Molecules are shown by their SMILES.

Sequence of IGF-1R (P08069 31-1367): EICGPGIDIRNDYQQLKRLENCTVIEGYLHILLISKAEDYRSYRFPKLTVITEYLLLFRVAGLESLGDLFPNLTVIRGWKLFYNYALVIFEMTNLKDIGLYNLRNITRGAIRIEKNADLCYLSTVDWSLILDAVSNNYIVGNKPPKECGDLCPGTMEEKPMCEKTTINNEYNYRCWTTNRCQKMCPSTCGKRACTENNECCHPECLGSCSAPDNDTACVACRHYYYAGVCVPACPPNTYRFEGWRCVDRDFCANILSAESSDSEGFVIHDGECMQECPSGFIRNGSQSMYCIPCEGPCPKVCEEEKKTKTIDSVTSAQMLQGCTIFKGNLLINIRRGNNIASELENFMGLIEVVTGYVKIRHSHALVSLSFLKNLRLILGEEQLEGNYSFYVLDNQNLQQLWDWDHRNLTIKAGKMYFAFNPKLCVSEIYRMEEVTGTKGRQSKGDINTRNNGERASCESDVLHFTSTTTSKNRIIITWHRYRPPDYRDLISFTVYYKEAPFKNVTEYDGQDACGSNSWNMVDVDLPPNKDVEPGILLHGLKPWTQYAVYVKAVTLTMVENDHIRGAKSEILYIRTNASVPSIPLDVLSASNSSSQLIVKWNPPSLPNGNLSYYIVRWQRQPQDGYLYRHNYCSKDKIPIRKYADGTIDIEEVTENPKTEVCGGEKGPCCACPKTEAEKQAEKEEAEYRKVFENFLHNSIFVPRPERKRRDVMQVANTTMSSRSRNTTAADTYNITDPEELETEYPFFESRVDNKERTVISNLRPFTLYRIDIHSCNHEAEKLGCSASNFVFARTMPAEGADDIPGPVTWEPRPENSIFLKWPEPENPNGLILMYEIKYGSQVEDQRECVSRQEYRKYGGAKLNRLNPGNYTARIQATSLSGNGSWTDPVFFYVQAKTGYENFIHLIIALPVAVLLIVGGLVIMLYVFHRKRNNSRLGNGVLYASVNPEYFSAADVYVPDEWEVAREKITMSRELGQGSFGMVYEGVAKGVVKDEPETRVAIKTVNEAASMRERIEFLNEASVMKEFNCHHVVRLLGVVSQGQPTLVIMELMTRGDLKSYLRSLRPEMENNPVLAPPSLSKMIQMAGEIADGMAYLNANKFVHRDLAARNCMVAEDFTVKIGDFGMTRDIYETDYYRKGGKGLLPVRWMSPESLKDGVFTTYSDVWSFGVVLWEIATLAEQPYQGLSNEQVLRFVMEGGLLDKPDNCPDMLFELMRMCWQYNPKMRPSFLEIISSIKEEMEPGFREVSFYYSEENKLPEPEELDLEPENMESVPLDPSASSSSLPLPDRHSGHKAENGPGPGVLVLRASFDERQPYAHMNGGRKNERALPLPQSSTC

With `O=C(NCCOc1ccccc1)c1ccc2[nH]c(-c3ccc[nH]c3=O)c(-c3ccccc3)c2c1` [Compound 31, 2-(2-oxo-1,2-dihydropyridin-3-yl)-N-(2-phenoxyethyl)-3-phenyl-1H-indole-5-carboxamide], the inhibition at 10 µM in the assay on NCI-H1299 was 80 to 100%; in the assay with DLD-1, 50 to 79%; in the assay on MDA-MB-231, < 50%; in the assay on KATO III, 80 to 100%. Further, the inhibition at 30 µM at IGF-1R lay in the range of 80 to 100%.

In the case of `COc1ccc(CNC(=O)c2ccc3[nH]c(-c4ccc[nH]c4=O)c(-c4ccccc4)c3c2)cc1OC` [Compound 32, N-(3,4-dimethoxybenzyl)-2-(2-oxo-1,2-dihydropyridin-3-yl)-3-phenyl-1H-indole-5-carboxamide], the inhibition at 10 µM was 80 to 100% in the assay with NCI-H1299, 50 to 79% in the assay with DLD-1, < 50% with MDA-MB-231 and 80 to 100% with KATO III. Also, the inhibition at 30 µM at IGF-1R lay within 80 to 100%.

Take `O=C(c1ccc2[nH]c(-c3ccc[nH]c3=O)c(-c3ccc(-c4ccccc4)cc3)c2c1)N1CCN(CCN2CCOCC2)CC1` [Compound 37, 3-(3-biphenyl-4-yl-5-{[4-(2-morpholin-4-ylethyl)piperazin-1-yl]carbonyl]-1H-indol-2-yl)pyridin-2(1H)-one]: the inhibition at 10 µM with NCI-H1299, in the assay on DLD-1, with MDA-MB-231 and with KATO III was 80 to 100% in each case. Also, the inhibition at 30 µM on IGF-1R was in the range of 80 to 100%.

Regarding `O=C(NCCc1ccccn1)c1ccc2[nH]c(-c3ccc[nH]c3=O)c(-c3ccc(-c4ccccc4)cc3)c2c1` [Compound 39, 3-biphenyl-4-yl-2-(2-oxo-1,2-dihydropyridin-3-yl)-N-(2-pyridin-2-ylethyl)-1H-indole-5-carboxamide], the inhibition at 10 µM in the assay with NCI-H1299, in the assay with DLD-1, in the assay on MDA-MB-231 and in the assay on KATO III was 80 to 100% each time. For the same compound, the inhibition at 30 µM on IGF-1R lay in the range of 50 to 79%.

Take `O=C(NCc1ccccc1)c1ccc2[nH]c(-c3ccc[nH]c3=O)c(-c3ccc(-c4ccccc4)cc3)c2c1` [Compound 40, N-benzyl-3-biphenyl-4-yl-2-(2-oxo-1,2-dihydropyridin-3-yl)-1H-indole-5-carboxamide]: the inhibition at 10 µM in the assay on NCI-H1299 was 50 to 79%; in the assay on DLD-1, < 50%; in the assay on MDA-MB-231, < 50%; with KATO III, < 50%. Further, the inhibition at 30 µM on IGF-1R is < 50%.

Consider `O=C(c1ccc2[nH]c(-c3ccc[nH]c3=O)c(-c3ccc(-c4ccccc4)cc3)c2c1)N1CCN(Cc2ccccn2)CC1` [Compound 41, 3-(3-biphenyl-4-yl-5-{[4-(pyridin-2-ylmethyl)piperazin-1-yl]carbonyl}-1H-indol-2-yl)pyridin-2(1H)-one], for which the inhibition at 10 µM with NCI-H1299 lay within 80 to 100%; with DLD-1, 80 to 100%; in the assay with MDA-MB-231, 50 to 79%; with KATO III, 80 to 100%. Also, the inhibition at 30 µM at IGF-1R lay within 50 to 79%.

For the compound `CCOC(=O)N1CCN(C(=O)c2ccc3[nH]c(-c4ccc[nH]c4=O)c(-c4ccc(-c5ccccc5)cc4)c3c2)CC1` [Compound 44, ethyl 4-{[3-biphenyl-4-yl-2-(2-oxo-1,2-dihydropyridin-3-yl)-1H-indol-5-yl]carbonyl}piperazine-1-carboxylate], the inhibition at 10 µM fell in the range of 80 to 100% with NCI-H1299, 50 to 79% in the assay with DLD-1, 80 to 100% in the assay with MDA-MB-231 and 80 to 100% in the assay with KATO III. The inhibition at 30 µM at IGF-1R lay in the range of 50 to 79%.

As for `CN(C)CCCN(C)C(=O)c1ccc2[nH]c(-c3ccc[nH]c3=O)c(-c3ccc(-c4ccccc4)cc3)c2c1` [Compound 46, 3-biphenyl-4-yl-N-[3-(dimethylamino)propyl]-N-methyl-2-(2-oxo-1,2-dihydropyridin-3-yl)-1H-indole-5-carboxamide], the inhibition at 10 µM in the assay with NCI-H1299, with DLD-1, with MDA-MB-231 and in the assay on KATO III was 80 to 100% throughout. Further, the inhibition at 30 µM on IGF-1R is 80 to 100%.

Take `CN1CCC(N2CCN(C(=O)c3ccc4[nH]c(-c5ccc[nH]c5=O)c(-c5ccc(-c6ccccc6)cc5)c4c3)CC2)CC1` [Compound 50, 3-(3-biphenyl-4-yl-5-{[4-(1-methylpiperidin-4-yl)piperazin-1-yl]carbonyl}-1H-indol-2-yl)pyridin-2(1H)-one]: the inhibition at 10 µM in the assay with NCI-H1299, in the assay with DLD-1, in the assay with MDA-MB-231 and in the assay on KATO III was 80 to 100% each time. In addition, on IGF-1R, the inhibition at 30 µM was 50 to 79%.

With `CN1CCN(C(=O)c2ccc3[nH]c(-c4ccc[nH]c4=O)c(-c4ccc(-c5ccccc5)cc4)c3c2)CC1` [Compound 52, 3-{3-biphenyl-4-yl-5-[(4-methylpiperazin-1-yl)carbonyl]-1H-indol-2-yl}pyridin-2(1H)-one], the inhibition at 10 µM in the assay with NCI-H1299, with DLD-1, in the assay on MDA-MB-231 and in the assay on KATO III was 80 to 100% throughout. The inhibition at 30 µM at IGF-1R fell in the range of 80 to 100%.

Take `Cc1ccccc1-c1c(-c2ccc[nH]c2=O)[nH]c2ccc(C(=O)NCCCN3CCOCC3)cc12` [Compound 58, 3-(2-methylphenyl)-N-(3-morpholin-4-ylpropyl)-2-(2-oxo-1,2-dihydropyridin-3-yl)-1H-indole-5-carboxamide]: the inhibition at 10 µM in the assay on NCI-H1299, in the assay with DLD-1, in the assay with MDA-MB-231 and in the assay on KATO III was < 50% in each case. Further, at IGF-1R, the inhibition at 30 µM lay within 80 to 100%.

`O=C(NCCCN1CCOCC1)c1ccc2[nH]c(-c3ccc[nH]c3=O)c(-c3cc(F)ccc3F)c2c1` [Compound 60, 3-(2,5-difluorophenyl)-N-(3-morpholin-4-ylpropyl)-2-(2-oxo-1,2-dihydropyridin-3-yl)-1H-indole-5-carboxamide]: the inhibition at 10 µM lay in the range of 80 to 100% with NCI-H1299, 50 to 79% in the assay with DLD-1, 50 to 79% with MDA-MB-231 and 80 to 100% with KATO III. The inhibition at 30 µM on IGF-1R is 80 to 100%.

As to `O=C(NCCCN1CCOCC1)c1ccc2[nH]c(-c3ccc[nH]c3=O)c(-c3ccc(F)c(F)c3)c2c1` [Compound 61, 3-(3,4-difluorophenyl)-N-(3-morpholin-4-ylpropyl)-2-(2-oxo-1,2-dihydropyridin-3-yl)-1H-indole-5-carboxamide], the inhibition at 10 µM in the assay with NCI-H1299, with DLD-1, with MDA-MB-231 and with KATO III was 80 to 100% throughout. Further, the inhibition at 30 µM at IGF-1R lay in the range of 80 to 100%.

Regarding `O=C(NCCCN1CCOCC1)c1ccc2[nH]c(-c3ccc[nH]c3=O)c(-c3cccc(Cl)c3)c2c1` [Compound 62, 3-(3-chlorophenyl)-N-(3-morpholin-4-ylpropyl)-2-(2-oxo-1,2-dihydropyridin-3-yl)-1H-indole-5-carboxamide], the inhibition at 10 µM in the assay with NCI-H1299, in the assay on DLD-1, in the assay with MDA-MB-231 and in the assay on KATO III was 80 to 100% throughout. The inhibition at 30 µM at IGF-1R lay within 80 to 100%.
